Laboratory results taken from patent publication US9377460B2 (priority 2009, dated 2016).

How the values were obtained:
[1] = tested on: IFN-gamma-secreting T cells; assay type: cell-based, human; settings: for Proportion of responders to the Rv3615c peptide pool who respond to the individual peptide, LTBI % / Proportion of responders to the Rv3615c peptide pool who respond to the individual peptide, LTBI n: LTBI subjects; for Proportion of responders to the Rv3615c peptide pool who respond to the individual peptide, LTBI n / Proportion of responders to the Rv3615c peptide pool who respond to the individual peptide, Cases n: subjects responding/pool responders tested; for Proportion of responders to the Rv3615c peptide pool who respond to the individual peptide, Cases % / Proportion of responders to the Rv3615c peptide pool who respond to the individual peptide, Cases n: active TB cases
CD4-positive T cells = test: FACS analysis following cytokine capture assay (IFN-gamma / IL-2); assay type: cell-based, human; settings: subject T416 (LTBI), 6 hour stimulation

Row | Sequence | Proportion of responders to the Rv3615c peptide pool who respond to the individual peptide, LTBI % [1] [%] | Proportion of responders to the Rv3615c peptide pool who respond to the individual peptide, LTBI n [1] | Proportion of responders to the Rv3615c peptide pool who respond to the individual peptide, Cases % [1] [%] | Proportion of responders to the Rv3615c peptide pool who respond to the individual peptide, Cases n [1] | CD4 T cells secreting IFN-gamma only, relative size of subset (CD4-positive T cells) | CD4 T cells secreting IL-2 only, relative size of subset (CD4-positive T cells) | CD4 T cells secreting both IFN-gamma and IL-2, relative size of subset (CD4-positive T cells)
1 | DEAWRKAIDGLFT (listed as Mycobacterium tuberculosis) [p19, carboxy-terminal peptide of Rv3615c] | 25 | 1/4 | 15 | 2/13 | – | – | –
2 | TAGVDLAKSLRIAAK (listed as Mycobacterium tuberculosis) [p15, 15mer peptide of Rv3615c] | 50 | 2/4 | 71 | 10/14 | – | – | –
3 | LAKSLRIAAKIYSEA (listed as Mycobacterium tuberculosis) [p16, 15mer peptide of Rv3615c] | 100 | 4/4 | 69 | 9/13 | smallest population | second largest population | dominant population
4 | NAAVDASSGVEAAAG (listed as Mycobacterium tuberculosis) [p5, 15mer peptide of Rv3615c] | 20 | 1/5 | 13 | 2/15 | – | – | –
5 | AITHGPYCSQFNDTL (listed as Mycobacterium tuberculosis) [p9, 15mer peptide of Rv3615c] | 40 | 2/5 | 0 | 0/15 | – | – | –
6 | RLGVLASHHDNAAVD (listed as Mycobacterium tuberculosis) [p3, 15mer peptide of Rv3615c] | 40 | 2/5 | 20 | 3/15 | – | – | –
7 | AHNALGSSLHTAGVD (listed as Mycobacterium tuberculosis) [p13, 15mer peptide of Rv3615c] | 0 | 0/4 | 21 | 3/14 | – | – | –
8 | ASHHDNAAVDASSGV (listed as Mycobacterium tuberculosis) [p4, 15mer peptide of Rv3615c] | 20 | 1/5 | 13 | 2/15 | – | – | –
9 | EAAAGLGESVAITHG (listed as Mycobacterium tuberculosis) [p7, 15mer peptide of Rv3615c] | 0 | 0/5 | 7 | 1/15 | – | – | –
10 | GSSLHTAGVDLAKSL (listed as Mycobacterium tuberculosis) [p14, 15mer peptide of Rv3615c] | 50 | 2/4 | 79 | 11/14 | smallest population | second largest population | dominant population
11 | RIAAKIYSEADEAWR (listed as Mycobacterium tuberculosis) [p17, 15mer peptide of Rv3615c] | 50 | 2/2 | 38 | 5/13 | – | – | –
12 | PYCSQFNDTLNVYLT (listed as Mycobacterium tuberculosis) [p10, 15mer peptide of Rv3615c] | 40 | 2/5 | 40 | 6/15 | – | – | –
13 | IYSEADEAWRKAIDG (listed as Mycobacterium tuberculosis) [p18, 15mer peptide of Rv3615c] | 25 | 1/4 | 8 | 1/13 | – | – | –
14 | MTENLTVQPERLGVL (listed as Mycobacterium tuberculosis) [p1, 15mer peptide of Rv3615c] | 0 | 0/5 | 7 | 1/15 | – | – | –
15 | FNDTLNVYLTAHNAL (listed as Mycobacterium tuberculosis) [p11, 15mer peptide of Rv3615c] | 0 | 0/5 | 27 | 4/15 | – | – | –
16 | LGESVAITHGPYCSQ (listed as Mycobacterium tuberculosis) [p8, 15mer peptide of Rv3615c] | 0 | 0/5 | 7 | 1/15 | – | – | –
17 | NVYLTAHNALGSSLH (listed as Mycobacterium tuberculosis) [p12, 15mer peptide of Rv3615c] | 40 | 2/5 | 43 | 6/14 | – | – | –
18 | ASSGVEAAAGLGESV (listed as Mycobacterium tuberculosis) [p6, 15mer peptide of Rv3615c] | 0 | 0/5 | 7 | 1/15 | – | – | –
19 | TVQPERLGVLASHHD (listed as Mycobacterium tuberculosis) [p2, 15mer peptide of Rv3615c] | 0 | 0/5 | 33 | 5/15 | – | – | –
